Several values for one entry are separate records, joined by “and”; a condition that tells them apart may be missing. Equal entries are not always repeated. Structures can show the parent of a compound that is named as a salt. Where two headings read alike, the source gives them in different places.
Key:
[1] = target: T1, surface-expressing mutant TPC2 channel (TPC2^LL/AA) in HEK293 cells (Homo sapiens, UniProt Q8NHX9, L11A/L12A); test: Whole-cell recordings of ITPC2-LL/AA; format: cell-based; settings: for I-TPC2: preliminary whole-cell test of positive LOPAC hits, HEK293 cells overexpressing TPC2 LL/AA, voltage ramp -140 to +100 mV (200 ms), measured at -140 mV; for current density: whole cell recordings, individual recordings; for EC50: whole-cell recordings at −140 mV, TPC2^LL/AA-transfected HEK293 cells; for activation of whole-cell ITPC2-LL/AA (in words): bath application, symmetric Na^+, 100 µM where stated
T1 construct: expressed in transfected cells; host or cells: HEK293
T1 sequence (Q8NHX9 whole entry L11A/L12A): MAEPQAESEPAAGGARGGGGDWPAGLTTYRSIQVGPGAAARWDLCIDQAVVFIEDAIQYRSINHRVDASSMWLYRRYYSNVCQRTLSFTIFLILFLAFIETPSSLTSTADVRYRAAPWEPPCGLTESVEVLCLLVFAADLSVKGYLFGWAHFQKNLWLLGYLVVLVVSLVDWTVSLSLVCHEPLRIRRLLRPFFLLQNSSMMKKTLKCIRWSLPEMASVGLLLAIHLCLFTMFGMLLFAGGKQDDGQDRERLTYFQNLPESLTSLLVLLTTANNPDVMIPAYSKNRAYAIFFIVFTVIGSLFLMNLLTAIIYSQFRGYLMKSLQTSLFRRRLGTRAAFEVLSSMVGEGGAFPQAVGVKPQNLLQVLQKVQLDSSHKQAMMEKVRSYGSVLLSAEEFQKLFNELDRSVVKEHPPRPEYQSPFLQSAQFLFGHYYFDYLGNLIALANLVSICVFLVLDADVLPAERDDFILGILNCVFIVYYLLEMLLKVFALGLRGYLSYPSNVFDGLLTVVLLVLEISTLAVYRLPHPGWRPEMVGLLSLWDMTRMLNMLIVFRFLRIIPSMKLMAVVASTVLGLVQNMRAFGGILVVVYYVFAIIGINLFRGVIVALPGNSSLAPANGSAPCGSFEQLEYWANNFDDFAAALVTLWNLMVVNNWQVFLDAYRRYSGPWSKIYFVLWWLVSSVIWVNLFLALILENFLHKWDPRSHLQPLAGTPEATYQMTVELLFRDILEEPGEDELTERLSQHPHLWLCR
From the text: We therefore characterized the responses of TPC2 channels to TCAs in detail using electrophysiological methods. We first performed whole-cell recordings in HEK293 cells that were transfected with surface-expressed TPC2 mutant channels (TPC2-L^11L^12-AA; abbreviated as TPC2^LL/AA hereafter).
All TPC1 and TPC2 mutants were generated with a site-directed mutagenesis kit (Qiagen) using EGFP- human TPC1 and TPC2 as the templates. All constructs were confirmed by DNA sequencing.
Cells were transfected with Lipofectamine 2000 (Invitrogen). After culture media were refreshed 18–24 hr post-transfection, cells were used for the electrophysiological assays 24–36 hr post-transfection.
All bath solutions were applied via a perfusion system that allowed complete solution exchange within a few seconds. […] Whole-cell currents were digitized at 10 kHz and filtered at 2 kHz.

[2] = target: T2, hTPC2 (Homo sapiens, UniProt Q8NHX9); test: Whole-endolysosome recordings of ITPC2; format: biochemical; design: Whole endo-lysosomal TPC2 current activated by LyNa-VAs, Test 3 / Whole endo-lysosomal TPC2 current activated by LyNa-VAs, mean: unit not given here; settings: for ITPC2: whole endolysosome recordings with 100 µM of LyNa-VAs at −120 mV; for Whole endo-lysosomal TPC2 current activated by LyNa-VAs, mean: mean of n tests
T2 construct: expressed in transfected cells; host or cells: Cos1 and HEK293
T2 sequence (Q8NHX9 whole entry): as the sequence (Q8NHX9 whole entry L11A/L12A) above, with A11L, A12L counted along it

## CN(C)c1cc2c(Nc3ccc4c(cnn4Cc4ccccc4)c3)ncnc2cn1
[1]
  I-TPC2: No activation

## CC(=O)NBr [n-Bromoacetamide]
[1]
  I-TPC2: No activation

## CC(C)(C)c1cc(/C=C(\C#N)C(N)=S)cc(C(C)(C)C)c1O [Tyrphostin AG 879]
[1]
  I-TPC2: No activation

## CNCCC=C1c2ccccc2CCc2ccccc21 [LyNa-VA1.5, Nortriptyline]
[1]; 10 µM
  current density: 7.1 pA/pF and 35.8727 pA/pF and 7.336 pA/pF and 16.5636 pA/pF
[1]; 20 µM
  current density: 6.773 pA/pF and 73.7727 pA/pF and 24.3182 pA/pF
[1]; 50 µM
  current density: 14.0091 pA/pF and 121.209 pA/pF and 89.9 pA/pF
[1]; 100 µM
  current density: 57.6545 pA/pF and 164.355 pA/pF and 160.345 pA/pF and 75.7909 pA/pF
[1]; 200 µM
  current density: 154.282 pA/pF and 191.036 pA/pF and 204.236 pA/pF and 114.582 pA/pF
[1]; 400 µM
  current density: 180.164 pA/pF
[1]; read-out: EC50
  EC50: 52 ± 10 µM
[2]
  ITPC2: 1916 ± 361 pA

## CN(C)CCCN1c2ccccc2CCc2ccccc21 [LyNa-VA1.3, Imipramine]
[1]; 10 µM
  current density: 4.664 pA/pF and 36.5364 pA/pF and 8.182 pA/pF
[1]; 20 µM
  current density: 6.518 pA/pF and 56.7909 pA/pF and 7.655 pA/pF
[1]; 50 µM
  current density: 14.1182 pA/pF and 126.618 pA/pF and 15.6182 pA/pF
[1]; 100 µM
  current density: 42.3 pA/pF and 158.945 pA/pF and 32.4364 pA/pF
[1]; 200 µM
  current density: 99.9 pA/pF and 167.955 pA/pF and 41.0364 pA/pF
[1]; 400 µM
  current density: 103.264 pA/pF
[1]; read-out: EC50
  EC50: 112 ± 1 µM
[2]
  ITPC2: 433 ± 94 pA

## COC(=O)C1=CCCN(C)C1 [Arecoline]
[1]
  I-TPC2: No activation

## O=C(Nc1ccc([N+](=O)[O-])cc1Cl)c1cc(Cl)ccc1O [Niclosamide]
[1]
  I-TPC2: No activation

## CNCCCC1c2ccccc2C=Cc2ccccc21 [Protriptyline hydrochloride]
[1]
  I-TPC2: ~1000 pA

## CN(C)C(=O)C(CCN1CCC(O)(c2ccc(Cl)cc2)CC1)(c1ccccc1)c1ccccc1 [Loperamide]
[1]
  I-TPC2: No activation

## CN(C)CCCN1c2ccccc2CCc2ccccc21 [LyNa-VA1.3/imipramine]
[2]; 100uM, individual recording
  Whole endo-lysosomal TPC2 current activated by LyNa-VAs, Test 1: 621.3
  Whole endo-lysosomal TPC2 current activated by LyNa-VAs, Test 2: 343.9
  Whole endo-lysosomal TPC2 current activated by LyNa-VAs, Test 3: 334.8
[2]; 100uM
  Whole endo-lysosomal TPC2 current activated by LyNa-VAs, mean: 433.3

## CCN(CC)CCCC(C)Nc1c2ccc(Cl)cc2nc2ccc(OC)cc12 (stereo not drawn) [Quinacrine dihydrochloride dihydrate]
[1]
  I-TPC2: No activation

## CN(C)CCC=C1c2ccccc2CCc2ccccc21 [LyNa-VA1.4, Amitriptyline]
[1]
  activation of whole-cell ITPC2-LL/AA (in words): ITPC2 was evoked
[1]; 5 µM
  current density: 12.4 pA/pF
[1]; 10 µM
  current density: 7.736 pA/pF and 9.045 pA/pF and 6.655 pA/pF and 9.464 pA/pF
[1]; 20 µM
  current density: 11.0727 pA/pF and 11.9545 pA/pF and 11.2909 pA/pF and 11.6545 pA/pF
[1]; 50 µM
  current density: 26.9364 pA/pF and 36.5091 pA/pF and 23.5818 pA/pF and 26.8545 pA/pF
[1]; 100 µM
  current density: 95.0727 pA/pF and 115.527 pA/pF and 80.9273 pA/pF and 83.2 pA/pF
[1]; 200 µM
  current density: 156.364 pA/pF and 155.436 pA/pF and 160.382 pA/pF and 158.109 pA/pF
[1]; 400 µM
  current density: 179.973 pA/pF
[1]; read-out: EC50
  EC50: 102 ± 3 µM
[2]
  ITPC2: 876 ± 196 pA

## CC(=O)OC(C)C[N+](C)(C)C (stereo not drawn) [Methacholine chloride]
[1]
  I-TPC2: No activation

## CN1Cc2c(N)cccc2C(c2ccccc2)C1 (stereo not drawn) [Nomifensine maleate]
[1]
  I-TPC2: No activation

## N=C(N)NC(=O)Cc1c(Cl)cccc1Cl [Guanfacine hydrochloride]
[1]
  I-TPC2: No activation

## CNCCC=C1c2ccccc2CCc2ccccc21 [LyNa-VA1.5/nortriptyline]
[2]; 100uM, individual recording
  Whole endo-lysosomal TPC2 current activated by LyNa-VAs, Test 1: 1814.6
  Whole endo-lysosomal TPC2 current activated by LyNa-VAs, Test 2: 1075.1
  Whole endo-lysosomal TPC2 current activated by LyNa-VAs, Test 3: 1937.9
[2]; 100uM, individual recording, Test 4
  Whole endo-lysosomal TPC2 current activated by LyNa-VAs, Test 4: 2836.3
[2]; 100uM
  Whole endo-lysosomal TPC2 current activated by LyNa-VAs, mean: 1916.0

## CC(C[N+](C)(C)C)OC(N)=O (stereo not drawn) [Bethanechol chloride]
[1]
  I-TPC2: No activation

## c1ccc2c(c1)Nc1ccccc1S2 [Phenothiazine]
[1]
  activation of whole-cell ITPC2-LL/AA (in words): no significant activation
  EC50: No activation
[1]; 10 µM
  current density: 10.2273 pA/pF and 10.0273 pA/pF and 9.7 pA/pF
[1]; 20 µM
  current density: 11.0091 pA/pF and 7.509 pA/pF and 8.936 pA/pF
[1]; 50 µM
  current density: 10.7545 pA/pF and 9.7 pA/pF and 10.2182 pA/pF
[1]; 100 µM
  current density: 9.9 pA/pF and 8.064 pA/pF and 9.882 pA/pF
[1]; 200 µM
  current density: 10.0545 pA/pF and 9.218 pA/pF and 9.555 pA/pF
[2]; 100uM, individual recording
  Whole endo-lysosomal TPC2 current activated by LyNa-VAs, Test 1: 10.3
  Whole endo-lysosomal TPC2 current activated by LyNa-VAs, Test 2: -2.6
  Whole endo-lysosomal TPC2 current activated by LyNa-VAs, Test 3: 4.8
[2]; 100uM
  Whole endo-lysosomal TPC2 current activated by LyNa-VAs, mean: 4.2
[2]
  ITPC2: No activation

## C[N+](C)(C)CC#CCN1CCCC1=O
[1]
  I-TPC2: No activation

## CN(C)CCCN1c2ccccc2Sc2ccc(C(F)(F)F)cc21 [LyNa-VA2.2, Triflupromazine]
[1]; 10 µM
  current density: 5.827 pA/pF and 3.645 pA/pF and 3 pA/pF
[1]; 20 µM
  current density: 9.373 pA/pF and 9.136 pA/pF and 3.482 pA/pF
[1]; 50 µM
  current density: 33.1545 pA/pF and 26.4182 pA/pF and 44.2909 pA/pF
[1]; 100 µM
  current density: 125.791 pA/pF and 49.7455 pA/pF and 115.618 pA/pF
[1]; 200 µM
  current density: 155.109 pA/pF and 66.0091 pA/pF and 133.127 pA/pF
[1]; read-out: EC50
  EC50: 63 ± 2 µM
[2]
  ITPC2: 984 ± 294 pA

## CN(C)CCCN1c2ccccc2Sc2ccc(C(F)(F)F)cc21 [LyNa-VA2.2/triflupromazine]
[2]; 100uM, individual recording
  Whole endo-lysosomal TPC2 current activated by LyNa-VAs, Test 1: 1572
  Whole endo-lysosomal TPC2 current activated by LyNa-VAs, Test 2: 698
  Whole endo-lysosomal TPC2 current activated by LyNa-VAs, Test 3: 681.2
[2]; 100uM
  Whole endo-lysosomal TPC2 current activated by LyNa-VAs, mean: 983.7

## N#C/C(=C\c1ccc(O)c(O)c1)C(=O)NCc1ccccc1 [Tyrphostin B42]
[1]
  I-TPC2: No activation

## CN(C)CCC[C@@]1(c2ccc(F)cc2)OCc2cc(C#N)ccc21 [Escitalopram]
[1]
  I-TPC2: No activation

## CN(C)CCCN1c2ccccc2Sc2ccc(C(F)(F)F)cc21 [Triflupromazine hydrochloride]
[1]
  I-TPC2: >1500 pA

## C[N+](C)(C)CCOC(N)=O [Carbachol]
[1]
  I-TPC2: No activation

## CN(C)CCC=C1c2ccccc2CCc2ccccc21 [Amitriptyline hydrochloride]
[1]
  I-TPC2: ~1000 pA

## CN(C)CCCN1c2ccccc2Sc2ccc(Cl)cc21 [Chlorpromazine hydrochloride]
[1]
  I-TPC2: >1500 pA

## C#CCOC(=O)C1=CCCN(C)C1 [Arecaidine propargyl ester]
[1]
  I-TPC2: No activation

## CN(C)CCCN1c2ccccc2Sc2ccc(Cl)cc21 [LyNa-VA2.1/chlorpromazine]
[2]; 100uM, individual recording
  Whole endo-lysosomal TPC2 current activated by LyNa-VAs, Test 1: 1013.4
  Whole endo-lysosomal TPC2 current activated by LyNa-VAs, Test 2: 2019.9
  Whole endo-lysosomal TPC2 current activated by LyNa-VAs, Test 3: 268.2
[2]; 100uM
  Whole endo-lysosomal TPC2 current activated by LyNa-VAs, mean: 1100.5

## NC(=O)N1c2ccccc2C=Cc2ccccc21 [Carbamazepine]
[1]
  activation of whole-cell ITPC2-LL/AA (in words): no significant activation
  EC50: No activation
[1]; listed as carbamazepine
  activation of whole-cell ITPC2-LL/AA (in words): not by carbamazepine
[1]; 5 µM
  current density: 8.018 pA/pF and 9.073 pA/pF and 6.645 pA/pF
[1]; 10 µM
  current density: 8.227 pA/pF and 9.227 pA/pF and 5.436 pA/pF
[1]; 20 µM
  current density: 8.573 pA/pF and 9.164 pA/pF and 6.418 pA/pF
[1]; 50 µM
  current density: 8.8 pA/pF and 8.755 pA/pF and 6.073 pA/pF
[1]; 100 µM
  current density: 7.691 pA/pF and 8.973 pA/pF and 5.518 pA/pF
[1]; 200 µM
  current density: 7.464 pA/pF and 9.855 pA/pF and 6.164 pA/pF
[1]; 400 µM
  current density: 8.109 pA/pF and 8.755 pA/pF and 7.1 pA/pF
[2]; 100uM, individual recording
  Whole endo-lysosomal TPC2 current activated by LyNa-VAs, Test 1: -17
  Whole endo-lysosomal TPC2 current activated by LyNa-VAs, Test 2: 9.3
  Whole endo-lysosomal TPC2 current activated by LyNa-VAs, Test 3: 23.1
[2]; 100uM
  Whole endo-lysosomal TPC2 current activated by LyNa-VAs, mean: 5.1
[2]
  ITPC2: No activation

## C[C@@H]1O[C@H](C[N+](C)(C)C)C[C@H]1O [Muscarine]
[1]
  I-TPC2: No activation

## CCCNCC(O)COc1ccccc1C(=O)CCc1ccccc1 (stereo not drawn) [Propafenone]
[1]
  I-TPC2: No activation

From publication PMC6905855, “Agonist-specific voltage-dependent gating of lysosomal two-pore Na^+ channels” (eLife, 2019)
